Experimental data as given in US9145391B2, “Bipyridylaminopyridines as Syk inhibitors” (Merck Sharp & Dohme Corp., priority 2011, dated 2015).

target: recombinant human GST-Syk (Homo sapiens (Human), UniProt P43405); assay: Homogeneous Time-Resolved Fluorescence (HTRF) assay for the recombinant human Syk enzyme; assay type: biochemical; conditions: recombinant human GST-Syk 5 pM, ATP 25 μM, read-out: rhSyk IC50
How it was run: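 Recombinant GST-hSyk fusion protein kinase activity was read by HTRF. Reactions were started with biotinylated substrate peptide at 250 nM final, Mg 5 mM final and ATP 25 μM final. Potency derived from inhibition of substrate phosphorylation.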

**Q.** Which IC50 does the source give for `Cc1cc(Nc2cc(C(F)(F)F)ccn2)nc(-c2ccc(N3CCCC(NC(=O)c4ccc5cc[nH]c5c4)C3)nc2)c1` (stereo not shown) [Example 4-17] here?
**A.** 32 nM

**Q.** With `CCOC(=O)OC(C)OC(=O)[C@H]1CC[C@H](C(C)(O)c2ccc(-c3cc(C)cc(Nc4cc(C(F)F)ccn4)n3)cn2)CC1` (single isomer, unassigned) [Example 20-5, 1-[(ethoxycarbonyl)oxy] ethyl trans-4-[(1R or 1S)-1-(6-{[4-(difluoromethyl)pyridin-2-yl]amino}-4-methyl-2,3′-bipyridin-6′-yl)-1-hydroxyethyl] cyclohexanecarboxylate] as the molecule, how does the IC50 read?
**A.** 32 nM

**Q.** `Cc1cc(Nc2cc(C(F)F)ccn2)nc(-c2ccc(C(C)(O)[C@H]3CC[C@H](C(=O)OC4CCCCC4)CC3)nc2)c1` (single isomer, unassigned) [Example 19-12, cyclohexyl trans-4-[(1R or 1S)-1-(6-{[4-(difluoromethyl)pyridin-2-yl]amino}-4-methyl-2,3′-bipyridin-6′-yl)-1-hydroxyethyl] cyclohexanecarboxylate] was tested. Which IC50 did it give?
**A.** 47 nM

**Q.** How did the IC50 turn out when `Cc1cc(Nc2cc(C(F)(F)F)ccn2)nc(-c2ccc([C@]3(O)CC[C@H](C(N)=O)C(C)(C)C3)nc2)c1` (single isomer, unassigned) [Example 8, (1S,4S or 1R,4R)-4-Hydroxy-2,2-dimethyl-4-(4-methyl-6-{[4-(trifluoromethyl)pyridin-2-yl]amino}-2,3′-bipyridin-6′-yl)cyclohexanecarboxamide] was run?
**A.** 23 nM

**Q.** With `Cc1cc(Nc2cc(C(F)(F)F)ccn2)nc(-c2ccc(NC3CCN(C(=O)c4ccc(-c5ccccc5)cc4)CC3)nc2)c1` [Example 4-81] as the molecule, how does the IC50 read?
**A.** 44 nM

**Q.** With `Cc1cc(Nc2cc(C(F)F)ccn2)nc(-c2ccc(C(C)(O)[C@H]3CC[C@H](CO)CC3)nc2)c1` (single isomer, unassigned) [Example 23, (1R or 1S)-1-(6-{[4-(difluoromethyl)pyridin-2-yl]amino}-4-methyl-2,3′-bipyridin-6′-yl)-1-[trans-4-(hydroxymethyl)cyclohexyl]ethanol] as the molecule, how does the IC50 read?
**A.** 1 nM

**Q.** How did the IC50 turn out when `Cc1cc(Nc2cc(C3CC3)ccn2)nc(-c2ccc(C(C)(O)C3CCC(C(=O)O)CC3)nc2)c1` (stereo not shown) [Example 1-32] was run?
**A.** 1 nM

**Q.** With `Cc1cc(Nc2cc(C(F)(F)F)ccn2)nc(-c2ccc(NC3CCN(C(=O)c4ccc(F)c(O)c4)CC3)nc2)c1` [Example 4-115] as the molecule, how does the IC50 read?
**A.** 4 nM

**Q.** For `Cc1cc(Nc2cc(C(F)(F)F)ccn2)nc(-c2ccc(NC3CCN(C(=O)CCOc4ccccc4)CC3)nc2)c1` [Example 4-76], which IC50 is on record?
**A.** 10 nM

**Q.** How did the IC50 turn out when `Cc1cc(Nc2cc(C(F)(F)F)ccn2)nc(-c2ccc(C3(O)CCN(C(=O)c4ccc5cc[nH]c5n4)CC3)nc2)c1` [Example 9, 4-(4-Methyl-6-{[4-(trifluoromethyl)pyridin-2-yl]amino}-2,3′-bipyridin-6′-yl)-1-(1H-pyrrolo[2,3-b]pyridin-6-ylcarbonyl)piperidin-4-ol] was run?
**A.** 9 nM

**Q.** Which IC50 does the source give for `Cc1cc(Nc2cc(C(F)(F)F)ccn2)nc(-c2ccc(NC3CCN(C(=O)c4ccc5[nH]ncc5c4)CC3)nc2)c1` [Example 4-98] here?
**A.** 5 nM

**Q.** With `Cc1cc(Nc2cc(C(F)(F)F)ccn2)nc(-c2ccc(C3(O)CCC(C(=O)O)C(C)(C)C3)nc2)c1` (stereo not shown) [Example 1-24] as the molecule, how does the IC50 read?
**A.** 8 nM

**Q.** How did the IC50 turn out when `CCC(C)OC(=O)[C@H]1CC[C@H](C(C)(O)c2ccc(-c3cc(C)cc(Nc4cc(C(F)F)ccn4)n3)cn2)CC1` (single isomer, unassigned) [Example 19-5, butan-2-yl trans-4-[(1R or 1S)-1-(6-{[4-(difluoromethyl)pyridin-2-yl]amino}-4-methyl-2,3′-bipyridin-6′-yl)-1-hydroxyethyl] cyclohexanecarboxylate] was run?
**A.** 7 nM

**Q.** Which IC50 does the source give for `Cc1cc(Nc2cc(C(F)(F)F)ccn2)nc(-c2ccc(NC3CCN(C(=O)c4ccc(O)cc4)CC3)nc2)c1` [Example 4-106] here?
**A.** 6 nM

**Q.** `Cc1cc(Nc2cc(C(F)F)ccn2)nc(-c2ccc(C(C)(O)[C@H]3CC[C@H](C(=O)O)CC3)nc2)c1Br` (single isomer, unassigned) [Example 15, trans-4-((1R or 1S)-(3-Bromo-6-(4-(difluoromethyl)pyridin-2-ylamino)-4-methyl-2,3′-bipyridin-6′-yl)-1-hydroxyethyl)cyclohexanecarboxylic acid] was tested. Which IC50 did it give?
**A.** 1 nM

**Q.** How did the IC50 turn out when `Cc1cc(Nc2cc(C(F)(F)F)ccn2)nc(-c2ccc(NC(C)(C)C(=O)O)nc2)c1` [Example 2-19] was run?
**A.** 19 nM

**Q.** For `Cc1cc(Nc2cc(C(F)(F)F)ccn2)nc(-c2ccc(N3CC[C@H](N)C3)nc2)c1` [Example 5, 6′-[(3S)-3-aminopyrrolidin-1-yl]-4-methyl-N-[4-(trifluoromethyl)pyridin-2-yl]-2,3′-bipyridin-6-amine], which IC50 is on record?
**A.** 1 nM

**Q.** For `CCOC(=O)C1CCC(O)(c2ccc(-c3cc(C)cc(Nc4cc(C(F)(F)F)ccn4)n3)cn2)CC1` (stereo not shown) [Example 1-11], which IC50 is on record?
**A.** 47 nM

**Q.** `Cc1cc(Nc2cc(C(F)(F)F)ccn2)nc(-c2ccc(NC3CCN(C(=O)Cc4ccc(C#N)cc4)CC3)nc2)c1` [Example 4-91] was tested. Which IC50 did it give?
**A.** 4 nM

**Q.** With `Cc1cc(Nc2cc(C(F)F)ccn2)nc(-c2ccc(C(C)(O)[C@H]3CC[C@H](C(=O)O)CC3)nc2)c1` (single isomer, unassigned) [Example 12, trans-4-[(1R or 1S)-(6-{[4-(Difluoromethyl)pyridin-2-yl]amino}-4-methyl-2,3′-bipyridin-6′-yl)-1-hydroxyethyl]cyclohexanecarboxylic acid] as the molecule, how does the IC50 read?
**A.** < 0.5 nM

**Q.** With `Cc1cc(Nc2cc(C(F)(F)F)ccn2)nc(-c2ccc(NC3CCN(C(=O)c4cccnc4)CC3)nc2)c1` [Example 4-94] as the molecule, how does the IC50 read?
**A.** 2 nM

**Q.** Which IC50 does the source give for `Cc1cc(Nc2cc(C(F)F)ccn2)nc(-c2ccc(C(C)(O)[C@H]3CC[C@H](C(=O)OCC(C)(C)C)CC3)nc2)c1` (single isomer, unassigned) [Example 19-8, 2,2-dimethylpropyl trans-4-[(1R or 1S)-1-(6-{[4-(difluoromethyl)pyridin-2-yl]amino}-4-methyl-2,3′-bipyridin-6′-yl)-1-hydroxyethyl] cyclohexanecarboxylate] here?
**A.** 150 nM

**Q.** `Cc1cc(Nc2cc(C(F)(F)F)ccn2)nc(-c2ccc(NC3CCN(C(=O)Cc4cccc(O)c4)CC3)nc2)c1` [Example 4-83] was tested. Which IC50 did it give?
**A.** 3 nM

**Q.** With `Cc1cc(Nc2cc(C(F)(F)F)ccn2)nc(-c2ccc(NC3CCN(C(=O)Cc4c(C)[nH]c5ccccc45)CC3)nc2)c1` [Example 4-88] as the molecule, how does the IC50 read?
**A.** 11 nM

**Q.** How did the IC50 turn out when `CCc1ccc(OCC(=O)N2CCC(Nc3ccc(-c4cc(C)cc(Nc5cc(C(F)(F)F)ccn5)n4)cn3)CC2)cc1` [Example 4-56] was run?
**A.** 39 nM

**Q.** `Cc1cc(Nc2cc(C(F)(F)F)ccn2)nc(-c2ccc(NC3CCN(C(=O)Cc4cccnc4)CC3)nc2)c1` [Example 4-77] was tested. Which IC50 did it give?
**A.** 1 nM

**Q.** How did the IC50 turn out when `Cc1cc(Nc2cc(C(F)(F)F)ccn2)nc(-c2ccc(NC3CCN(C(=O)CCCN4CCCC4=O)CC3)nc2)c1` [Example 4-89] was run?
**A.** 1 nM

**Q.** For `Cc1cc(Nc2cc(C(F)(F)F)ccn2)nc(-c2ccc(NC3CCN(C(=O)COc4ccccc4-c4ccccc4)CC3)nc2)c1` [Example 4-25], which IC50 is on record?
**A.** 209 nM

**Q.** How did the IC50 turn out when `Cc1cc(Nc2cc(C(F)(F)F)ccn2)nc(-c2ccc(NC3CCN(C(=O)c4ccc(C(F)(F)F)cc4)CC3)nc2)c1` [Example 4-72] was run?
**A.** 56 nM

**Q.** With `COC(=O)COC(=O)[C@H]1CC[C@H](C(C)(O)c2ccc(-c3cc(C)cc(Nc4cc(C(F)F)ccn4)n3)cn2)CC1` (single isomer, unassigned) [Example 19-17, 2-methoxy-2-oxoethyl trans-4-[(1R or 1S)-1-(6-{[4-(difluoromethyl)pyridin-2-yl]amino}-4-methyl-2,3′-bipyridin-6′-yl)-1-hydroxyethyl] cyclohexanecarboxylate] as the molecule, how does the IC50 read?
**A.** 4.3 nM

**Q.** With `Cc1cc(Nc2cc(C(F)(F)F)ccn2)nc(-c2ccc(NC3CCN(C(=O)c4cccc(C(F)(F)F)c4)CC3)nc2)c1` [Example 4-40] as the molecule, how does the IC50 read?
**A.** 102 nM

**Q.** For `Cc1cc(Nc2cc(C(F)(F)F)ccn2)nc(-c2ccc(NC3CCC(C(=O)O)CC3)nc2)c1` (stereo not shown) [Example 2-24], which IC50 is on record?
**A.** 1 nM

**Q.** With `COc1c(C(=O)N2CCC(Nc3ccc(-c4cc(C)cc(Nc5cc(C(F)(F)F)ccn5)n4)cn3)CC2)ccc2ccccc12` [Example 4-64] as the molecule, how does the IC50 read?
**A.** 83 nM

**Q.** For `Cc1cc(Nc2cc(C(F)(F)F)ccn2)nc(-c2ccc(C3(O)CCN(C(=O)c4[nH]c5ccccc5c4C)CC3)nc2)c1` [Example 9-5], which IC50 is on record?
**A.** 112 nM

**Q.** With `Cc1cc(Nc2cc(C(F)F)ccn2)nc(-c2ccc(C(C)(O)[C@H]3CC[C@H](C(=O)OCOC(=O)OC(C)C)CC3)nc2)c1` (single isomer, unassigned) [Example 20-1, {[(propan-2-yloxy)carbonyl]oxy}methyl trans-4-[(1R or 1S)-1-(6-{[4-(difluoromethyl)pyridin-2-yl]amino}-4-methyl-2,3′-bipyridin-6′-yl)-1-hydroxyethyl] cyclohexanecarboxylate] as the molecule, how does the IC50 read?
**A.** 19 nM

**Q.** With `Cc1cc(Nc2cc(C(F)(F)F)ccn2)nc(-c2ccc(C(C)(O)[C@H]3CC[C@H](C(=O)O)CC3)nc2)c1` (single isomer, unassigned) [Example 1, trans-4-((1R or 1S)-1-Hydroxy-1-(4-methyl-6-(4-(trifluoromethyl)pyridin-2-ylamino)-2,3′-bipyridin-6′-yl)ethyl)cyclohexanecarboxylic acid] as the molecule, how does the IC50 read?
**A.** < 0.5 nM

**Q.** How did the IC50 turn out when `CC(=O)Nc1ccc(C(=O)N2CCC(Nc3ccc(-c4cc(C)cc(Nc5cc(C(F)(F)F)ccn5)n4)cn3)CC2)cc1` [Example 4-79] was run?
**A.** 4 nM

**Q.** With `Cc1cc(Nc2cc(C(F)(F)F)ccn2)nc(-c2ccc(NC3CCN(C(=O)c4cc5ccccc5cn4)CC3)nc2)c1` [Example 4-61] as the molecule, how does the IC50 read?
**A.** 4 nM

**Q.** With `Cc1cc(Nc2cc(C(F)(F)F)ccn2)nc(-c2ccc(NC3CCN(C(=O)c4cc5ccccc5n4-c4ccccc4)CC3)nc2)c1` [Example 4-118] as the molecule, how does the IC50 read?
**A.** 176 nM

**Q.** How did the IC50 turn out when `Cc1cc(Nc2cc(C(F)(F)F)ccn2)nc(-c2ccc(NC3CCN(C(=O)c4cnc5ccc(C)cc5c4)CC3)nc2)c1` [Example 4-51] was run?
**A.** 10 nM
